Results from the supplement of paper PMC10307832.

What was measured:
Assay in all cases: relative viability (nuclei count vs DMSO), 5 days (fraction); higher = more cells survive
Carboplatin + Navitoclax = compound: C1CC(C1)(C(=O)O)C(=O)O.[NH2-].[NH2-].[Pt+2] [Carboplatin] + CC1(C)CCC(c2ccc(Cl)cc2)=C(CN2CCN(c3ccc(C(=O)NS(=O)(=O)c4ccc(N[C@H](CCN5CCOCC5)CSc5ccccc5)c(S(=O)(=O)C(F)(F)F)c4)cc3)CC2)C1 [Navitoclax] (partner 0.5 µM)
In short: (§1)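 Relative viability was taken as the ratio of nuclei in treated wells to nuclei in vehicle wells. Lung cancer cell lines in 1536-well plates received compounds by pin tool one day after seeding, either one drug alone or a fixed anchor-drug dose plus five library-drug doses (not always all listed) in √10 steps. Nuclei were counted on 4× images after 5 days of treatment, and values are medians of duplicate plates.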

GSK126 + OSI-027 = compound: CC[C@H](C)N1C=C(C2=C(C=C(C=C21)C3=CN=C(C=C3)N4CCNCC4)C(=O)NCC5=C(C=C(NC5=O)C)C)C [GSK126] + COc1cccc2cc(-c3nc([C@H]4CC[C@H](C(=O)O)CC4)n4ncnc(N)c34)[nH]c12 [OSI-027] (partner 0.5 µM)
In short: as §1

MLN4924 + Trametinib = compound: NS(=O)(=O)OC[C@@H]1C[C@@H](n2ccc3c(N[C@H]4CCc5ccccc54)ncnc32)C[C@@H]1O [MLN4924] + CC(=O)Nc1cccc(-n2c(=O)n(C3CC3)c(=O)c3c(Nc4ccc(I)cc4F)n(C)c(=O)c(C)c32)c1 [Trametinib] (partner 0.02 µM)
In short: as §1

MLN4924 + Linsitinib = compound: NS(=O)(=O)OC[C@@H]1C[C@@H](n2ccc3c(N[C@H]4CCc5ccccc54)ncnc32)C[C@@H]1O [MLN4924] + C[C@]1(O)C[C@@H](c2nc(-c3ccc4ccc(-c5ccccc5)nc4c3)c3c(N)nccn32)C1 [Linsitinib] (partner 1 µM)
In short: as §1

Cell Line | relative viability (Carboplatin + Navitoclax; first compound 0.08 µM) | relative viability (Carboplatin + Navitoclax; first compound 0.253 µM) | relative viability (Carboplatin + Navitoclax; first compound 0.8 µM) | relative viability (Carboplatin + Navitoclax; first compound 2.53 µM) | relative viability (Carboplatin + Navitoclax; first compound 8 µM) | relative viability (GSK126 + OSI-027; first compound 0.08 µM) | relative viability (GSK126 + OSI-027; first compound 0.253 µM) | relative viability (GSK126 + OSI-027; first compound 0.8 µM) | relative viability (GSK126 + OSI-027; first compound 2.53 µM) | relative viability (GSK126 + OSI-027; first compound 8 µM) | relative viability (MLN4924 + Trametinib; first compound 0.04 µM) | relative viability (MLN4924 + Trametinib; first compound 0.1265 µM) | relative viability (MLN4924 + Trametinib; first compound 0.4 µM) | relative viability (MLN4924 + Trametinib; first compound 1.265 µM) | relative viability (MLN4924 + Trametinib; first compound 4 µM) | relative viability (MLN4924 + Linsitinib; first compound 0.04 µM) | relative viability (MLN4924 + Linsitinib; first compound 0.1265 µM) | relative viability (MLN4924 + Linsitinib; first compound 0.4 µM) | relative viability (MLN4924 + Linsitinib; first compound 1.265 µM) | relative viability (MLN4924 + Linsitinib; first compound 4 µM)
HCC-366 | 1.08 | 1.12 | 1.13 | 1.02 | 0.753 | 1.2 | 0.754 | 0.868 | 0.927 | 0.847 | 0.369 | 0.376 | 0.514 | 0.305 | 0.0404 | 0.838 | 0.933 | 0.513 | 0.0247 | 0.0197
NCI-H838 | 1.22 | 1.08 | 1.16 | 1.11 | 1.06 | 0.43 | 0.403 | 0.309 | 0.424 | 0.379 | 0.438 | 0.331 | 0.172 | 0.0938 | 0.126 | 0.675 | 0.283 | 0.208 | 0.161 | 0.149
NCI-H2023 | 1.02 | 0.96 | 0.883 | 0.76 | 0.312 | 0.595 | 0.388 | 0.447 | 0.495 | 0.527 | 0.549 | 0.495 | 0.328 | 0.0604 | 0.0809 | 0.661 | 0.36 | 0.112 | 0.0836 | 0.0754
HCC-78 | 0.782 | 0.92 | 0.707 | 0.751 | 0.816 | 0.359 | 0.379 | 0.384 | 0.373 | 0.396 | 0.798 | 0.509 | 1.13 | 0.268 | 0.243 | 0.556 | 0.355 | 0.628 | 0.135 | 0.147
EPLC-272H | 1.15 | 1.18 | 0.978 | 1.29 | 1.11 | 0.295 | 0.309 | 0.318 | 0.353 | 0.303 | 0.339 | 0.333 | 0.0863 | 0.147 | 0.126 | 1.14 | 1.13 | 0.147 | 0.183 | 0.216
LCLC-97TM1 | 0.401 |  | 0.424 | 0.391 | 0.33 | 0.503 | 0.421 | 0.546 | 0.606 | 0.635 | 0.208 | 0.214 | 0.157 | 0.0691 | 0.0607 | 0.191 | 0.23 | 0.156 | 0.103 | 0.131
LK-2 | 0.905 | 1.03 | 0.74 | 0.74 | 0.995 | 0.168 | 0.245 | 0.212 | 0.282 | 0.303 | 0.699 | 0.677 | 0.618 | 0.245 | 0.212 | 0.497 | 0.46 | 0.289 | 0.198 | 0.203
CAL-12T | 1.2 | 1.21 | 1.23 | 1.26 | 1.09 | 0.78 | 0.576 | 0.767 | 0.67 | 0.819 | 0.373 | 0.371 | 0.269 | 0.279 | 0.158 | 0.717 | 0.636 | 0.237 | 0.135 | 0.143
NCI-H322M | 1.26 | 1.22 | 1.18 | 1.13 | 1.05 | 0.544 | 0.571 | 0.56 | 0.565 | 0.62 | 0.662 | 0.735 | 1.03 | 0.452 | 0.389 | 0.86 | 0.908 | 0.913 | 0.262 | 0.328
NCI-H2126 | 0.894 | 0.871 | 0.853 | 0.865 | 0.784 | 0.725 | 0.861 | 0.721 | 0.649 | 0.707 | 0.576 | 0.563 | 0.484 | 0.329 | 0.243 | 0.747 | 0.69 | 0.576 | 0.327 | 0.391
NCI-H596 | 1 | 0.952 | 0.803 | 0.74 | 0.695 | 0.895 | 0.701 | 0.798 | 0.754 | 0.714 | 0.799 | 0.833 | 0.727 | 0.649 | 0.443 | 1.2 | 1.3 | 0.744 | 0.853 | 0.304
LU99A | 0.842 | 0.881 | 0.829 | 0.774 | 0.581 | 0.341 | 0.324 | 0.275 | 0.311 | 0.296 | 0.493 | 0.342 | 0.291 | 0.172 | 0.146 | 0.469 | 0.332 | 0.254 | 0.147 | 0.177
NCI-H1666 | 1.04 | 1.12 | 0.745 | 0.853 | 0.641 | 0.886 | 0.868 | 0.986 | 0.789 | 0.822 | 0.762 | 0.601 | 0.615 | 0.429 | 0.51 | 1.01 | 0.504 | 0.263 | 0.225 | 0.252
NCI-H520 | 1.16 | 1.09 | 0.961 | 1.02 | 0.857 | 0.313 | 0.269 | 0.289 | 0.307 | 0.314 | 0.527 | 0.396 | 0.346 | 0.149 | 0.168 | 0.587 | 0.413 | 0.312 | 0.239 | 0.185
